Patent US20250144126A1, “APPLICATION OF 5'-MONOPHOSPHATE NUCLEOTIDE AND MIXTURE THEREOF IN PREPARATION OF DRUG OR FOOD FOR IMPROVING MITOCHONDRIAL FUNCTION” (priority 2021, published 2025)
Entries after “also recorded” stand apart in the source; their conditions may differ.

Tested on: H2O2-induced senescent mouse embryonic fibroblasts NIH/3T3
Test: Seahorse xFe96 mitochondria stress detection experiment in H2O2-induced senescent cells
Assay type: cell-based
Settings: 24 h incubation after 200 μmol/L H2O2 for 4 h; for mitochondrial basal respiration / mitochondrial oxygen consumption rate (OCR): vs blank and model control; for mitochondrial ATP production capability / mitochondrial maximum respiratory value / mitochondrial respiratory reserve: vs model control, P<0.05
Procedure: In this example, concentrations of the 5′-adenosine monophosphate and the 5′-disodium uridine obtained in Example 1 were 100 μmol/L and 200 μmol/L respectively, and were recorded as AMP 100 group and UMP 200 group, respectively. […] Model control group was a senescence cell model group intervened by hydrogen peroxide. Blank control group was a group free of mixture of 5′-adenosine monophosphate, 5′-disodium uridine and 5′-monophosphate nucleotide and without hydrogen peroxide intervention.
The cells used in the example were mouse embryonic fibroblasts NIH/3T3, which were purchased from Cell Bank of Chinese Academy of Sciences.
The cells were cultured in a DMEM high-sugar medium containing 1% penicillin/streptomycin and 10% fetal bovine serum in an incubator with 5% of CO2 at 37° C. under saturated humidity conditions. The establishment of the senescence cell model was as follows: After the cells grew to the wall of a culture vessel, different concentrations of hydrogen peroxide were used for intervention, where the concentrations of hydrogen peroxide were 50 μmol/L, 100 μmol/L, 200 μmol/L, 400 μmol/L, and 800 μmol/L. The medium containing hydrogen peroxide was removed after incubation for 4 hours, and a normal complete medium (DMEM high-sugar medium containing 1% penicillin/streptomycin and 10% fetal bovine serum) was added for incubation for 24 hours, then the cell activity of the cultured cells was detected by using a CCK-8 cell active kit, the expression of β-galactosidase was detected, and the expressions of the senescent marker p16INK4A and p21Waf1/Cipl were detected by western blot method.
In this example, the oxygen consumption rate (OCR), basal respiration, maximum respiratory value, ATP production capability and respiratory reserve of mitochondria were determined by using the Seahorse xFe96 (Agilent) mitochondria stress detection experiment. 20000 NIH/3T3 cells were inoculated in each well of a 96-well cell culture plate (Nunc, 165306) except the background wells at four corners. After overnight incubation and the cells grew to the wall of the culture plate, the cells were intervened by 200 μmol/L hydrogen peroxide for 4 hours, then the medium containing hydrogen peroxide was removed, and a normal complete medium containing nucleotides with different concentrations (DMEM high-sugar medium containing 1% of penicillin/streptomycin and 10% of fetal bovine serum, and the concentrations of 5′-adenosine monophosphate and 5′-disodium uridine were respectively 100 μmol/L and 200 μmol/L, and the concentration of the nucleotide mixture was 200 μmol/L) was added for incubation for 24 hours. A probe panel (xFe96 FluxPak, Agilent, 102353-100) was hydrated with a hydration solution (XF Calibrant Solution, Agilent, 100840-000) one day in advance, and then was placed in a non-CO2 incubator for incubation for at least 12 hours at 37° C. The experimental culture solution was prepared on the day of the experiment, 1 mL of 2.5 mM glucose (Glucose, Sigma, G7528), 1 mL of 2 mM glutamine (L-glutamine, Sigma, G8540), and 1 mL of 1 mM sodium pyruvate (Sodium pyruvate, Sigma, S8636) were added to 100 mL of base medium (Seahorse XF Basemedium, Agilent, 102353-100), and the pH of the culture solution was adjusted to 7.4±0.05 with 1N of NaOH. The culture solution of the cell culture plate was replaced with the experimental culture solution, 40 μL/well of the original medium was removed from the cell culture plate, then 160 μL/well of the experimental culture solution was added into the cell culture plate for dilution, and then 160 μL of the mixed culture solution was sucked out; the process was repeated for 2-3 times, finally the volume of the experimental culture solution in each well was 175 μL, and the cell culture plate was stood for 1 hour at 37° C.

Row | Structure (SMILES) | mitochondrial basal respiration (100 μmol/L) | mitochondrial oxygen consumption rate (OCR) (100 μmol/L) | mitochondrial ATP production capability (100 μmol/L) | mitochondrial maximum respiratory value (100 μmol/L) | mitochondrial respiratory reserve (100 μmol/L) | mitochondrial basal respiration (200 μmol/L) | mitochondrial ATP production capability (200 μmol/L) | mitochondrial maximum respiratory value (200 μmol/L) | mitochondrial respiratory reserve (200 μmol/L) | mitochondrial oxygen consumption rate (OCR) (200 μmol/L)
1 | Nc1ncnc2c1ncn2[C@@H]1O[C@H](COP(=O)(O)O)[C@@H](O)[C@H]1O [AMP, 5′-adenosine monophosphate] | returned to normal level | returned to normal level | significantly increased | significantly increased | significantly increased | – | – | – | – | –
2 | Nc1ccn([C@@H]2O[C@H](COP(=O)(O)O)[C@@H](O)[C@H]2O)c(=O)n1 [CMP, 5′-cytidine monophosphate] | – | – | – | – | – | increased and significantly lower than that in the nucleotide mixture group; also recorded: little effect | increased (P<0.05) but significantly lower than that in the nucleotide mixture group; also recorded: little effect | increased (P<0.05) but significantly lower than that in the nucleotide mixture group; also recorded: little effect | – | –
3 | Nc1nc2c(ncn2[C@@H]2O[C@H](COP(=O)([O-])[O-])[C@@H](O)[C@H]2O)c(=O)[nH]1.[Na+].[Na+] [GMP, 5′-disodium guanylate] | – | – | – | – | – | – | increased (P<0.05) but significantly lower than that in the nucleotide mixture group; also recorded: little effect | increased (P<0.05) but significantly lower than that in the nucleotide mixture group; also recorded: little effect | increased (P<0.05) but significantly lower than that in the nucleotide mixture group; also recorded: little effect | –
4 | O=c1ccn([C@@H]2O[C@H](COP(=O)([O-])[O-])[C@@H](O)[C@H]2O)c(=O)[nH]1.[Na+].[Na+] [UMP, 5′-disodium uridine] | – | – | – | – | – | significantly higher than that of the model control group; also recorded: returned to normal level | significantly increased | significantly increased | significantly increased | returned to normal level
